Molecular target: SARS-CoV-2 nsp12/7/8 (RTC) complex (Severe acute respiratory syndrome coronavirus 2, UniProt P0DTD1)
Experiment: biochemical
Format: biochemical
Conditions: not given

Compound	IC50 [µM]
CC(=O)c1nn(CC(=O)N2C[C@H](F)C[C@H]2C(=O)Nc2cccc(Br)n2)c2ccc(-c3cnc(C)nc3)cc12 [Danicopan, reference compound]	> 100
C=C(C)[C@@H]1CC[C@]2(C)CC[C@]3(C)[C@H](CC[C@@H]4[C@@]5(C)CC[C@H](O)C(C)(C)[C@@H]5CC[C@]43C)[C@@H]12 [Lupeol]	> 100
C=C(CC[C@@H](C(=O)O)[C@H]1[C@H](O)C[C@@]2(C)C3=C(CC[C@]12C)[C@@]1(C)CC[C@H](OC(C)=O)C(C)(C)[C@@H]1CC3)C(C)C [Pachymic acid]	> 100
C[C@H]1CC[C@]2(NC1)O[C@H]1C[C@H]3[C@@H]4CC[C@H]5C[C@@H](O)CC[C@]5(C)[C@H]4CC[C@]3(C)[C@H]1[C@@H]2C [Tomatidine]	51.4 ± 5.58
CC(=O)OC(C)(C)/C=C/C(=O)[C@](C)(O)[C@H]1[C@H](O)C[C@@]2(C)[C@@H]3CC=C4[C@@H](C=C(O)C(=O)C4(C)C)[C@]3(C)C(=O)C[C@]12C [Cucurbitacin E]	47.2 ± 20.5
C[C@]12C=CC(=O)N[C@@H]1CC[C@@H]1[C@@H]2CC[C@]2(C)[C@@H](C(=O)Nc3cc(C(F)(F)F)ccc3C(F)(F)F)CC[C@@H]12 [Dutasteride, reference compound]	> 100
CCOC(=O)N[C@@H]1CC[C@@H]2[C@@H](C1)C[C@H]1C(=O)O[C@H](C)[C@H]1[C@H]2/C=C/c1ccc(-c2cccc(F)c2)cn1 [Vorapaxar, reference compound]	> 100

Same assay, conditions: primer-extension PAGE assay, 150 nM RTC, 5% DMSO, 30 min preincubation at 37 °C; mean and SD of at least 3 independent experiments

Compound	IC50 [µM]
Cc1ccc(C(=O)NNC(=O)c2c(C)cccc2Cl)cc1C#Cc1cnc2ccccc2c1 [Vodobatinib, reference compound]	> 100

Same assay, conditions: read-out: IC50: compound concentration required to inhibit by 50% the SARS-CoV-2 RTC enzymatic activity

Compound	IC50 [µM]
CC(C)=CCc1c(-c2ccc(O)cc2O)oc2c([C@H]3C=C(C)C[C@@H](c4ccc(O)cc4O)[C@@H]3C(=O)c3ccc(O)cc3O)c(O)cc(O)c2c1=O [Kuwanon G]	41 ± 6.18
O=C(Nc1cccc(C(=O)O)c1)/C(=C\c1ccccc1)NC(=O)c1ccc(NC(=O)c2ccccc2)cc1 [3-[[(E)-2-[(4-benzamidobenzoyl)amino]-3-phenylprop-2-enoyl]amino]benzoic acid]	85.7 ± 0.62
C[C@H]1O[C@@H](O[C@H]2CC[C@@]3(C)[C@@H](CC[C@]4(C)[C@@H]3C=CC3=C5CC(C)(C)CC[C@]5(CO)[C@H](O)C[C@]34C)[C@]2(C)CO)[C@H](O)[C@@H](O[C@@H]2O[C@H](CO)[C@@H](O)[C@H](O)[C@H]2O)[C@H]1O [Saikosaponin B2]	54.6 ± 13.6
Cc1oc2c(C)c3oc(=O)c(CC(=O)N4C[C@H]5C[C@@H](C4)c4cccc(=O)n4C5)c(C)c3cc2c1-c1ccccc1 [(1S,9R)-11-[2-(2,5,9-trimethyl-7-oxo-3-phenylfuro[3,2-g]chromen-6-yl)acetyl]-7,11-diazatricyclo[7.3.1.02,7]trideca-2,4-dien-6-one]	28.3 ± 6.24
CC1(C)[C@H](OC(=O)c2ccccc2)CC[C@]2(C)C3=C([C@@H](O)C[C@@H]12)[C@@]1(C)CC[C@@]2(C)CC[C@@](C)(COC(=O)c4ccccc4)C[C@H]2[C@]1(C)CC3 [3,29-Dibenzoyl Rarounitriol]	> 100
COc1ccc2cc(S(=O)(=O)N[C@H](CC(=O)N[C@H](Cc3ccc(CN4[C@H](C)CCC[C@@H]4C)cc3)C(=O)N(C)C(C)C)c3ccc4c(c3)OCO4)ccc2c1 [SSR240612, reference compound]	85.9 ± 4.35
CC(C)=CCC[C@@](C)(O)[C@H]1CC[C@]2(C)[C@@H]1[C@H](O)C[C@@H]1[C@@]3(C)CC[C@H](O)C(C)(C)[C@@H]3CC[C@]12C [(20R)-Protopanaxadiol]	> 100
Cc1ccccc1NC(=O)Nc1ccc(CN2C(=O)N([C@@H](CC(C)C)C(=O)N[C@@H](CC(=O)O)c3ccccc3)C(=O)C2(C)C)cc1 [HMR1031, reference compound]	91.2 ± 4.88
Dryocrassin ABBA	14.5 ± 5.46
CC1(C)CC[C@]2(C)CC[C@]3(C)C(=CC[C@@H]4[C@@]5(C)CC[C@@H](O)[C@](C)(C(=O)O)[C@@H]5CC[C@]43C)[C@@H]2C1 [Alpha-Boswellic acid]	93.5 ± 9.14

Reference: PMC12519464, “Dual-Site Inhibition of SARS-CoV‑2 RNA-Dependent RNA Polymerase by Small Molecules Able to Block Viral Replication Identified through a Computer-Aided Drug Discovery Approach” (ACS Infectious Diseases, 2025)
